Measured values from patent publication US10898580B2, “Isoquinolidinobenzodiazepines” (priority 2015, dated 2021).
Converted amounts (≈) assume the structure as drawn.

Columns and labels:
HL-60 = assay: Growth inhibition by payloads, CellTiter-Glo cell viability; assay type: cell-based; settings: Homo sapiens, MDR −
Description: (§1) The cytotoxicity of the compounds was evaluated using the CellTiter-Glo Luminescent Cell Viability Assay (Promega Cat # G7573) as described in the manufacturer's instructions (Arduengo, M., Cell Notes, 2003, 5:15-17). This assay contains a reagent that lyses cells and generates a “glow-type” luminescent signal proportional to the amount of adenosine triphosphate (ATP) present, which is a measure of cell growth.
(§2) Cells were seeded at 1000 cells per well in 50 μL of culture media into tissue culture 96-well flat-bottom plates. The perimeter wells of the plate were not used and 200 μL of media was added to the perimeter wells to prevent evaporation during incubation. 50 μL of the compound tested at twice the final concentration were then added to the wells in triplicate. Plates were incubated at 37° C., 5% CO2 for 72 hours before adding 100 μL CellTiter-Glo reagent to each well (excluding perimeter wells). Plates were then incubated at room temperature on a shaker for 10 minutes. After incubation, 100 μL of the supernatants were transferred to a solid white 96-well plate and luminescence was measured with a spectrophotometer. Percent viability was calculated based on untreated control: % viability=(treated/untreated)*100.
(§3) GI50: Concentration of compound required for 50% cell growth inhibition.
(§4) The cytotoxic activity of compounds CLT-D201, CLT-D501, CLT-D601 was tested against various cell lines in comparison with a pyrrolobenzodiazepine dimer labeled as PBD1 (structurally identical to SGD-1882, Spirogen Ltd.), having a formula: […]

OCI-AML5 = assay: as above; assay type: cell-based; settings: Homo sapiens, OCI-AML-5, MDR NA
Description: as §1, §2, §3, §4

TF-1 = assay: as above; assay type: cell-based; settings: Homo sapiens, MDR +
Description: as §1, §2, §3, §4

HEL92.1.7 = assay: as above; assay type: cell-based; settings: Homo sapiens, HEL 92.1.7, MDR +
Description: as §1, §2, §3, §4

SHI = assay: as above; assay type: cell-based; settings: MDR −
Description: as §1, §2, §3, §4

KG1 = assay: as above; assay type: cell-based; settings: Homo sapiens, KG-1, MDR +
Description: as §1, §2, §3, §4

HNT-34 = assay: as above; assay type: cell-based; settings: MDR +/−
Description: as §1, §2, §3, §4

THP-1 = assay: as above; assay type: cell-based; settings: Homo sapiens, MDR −
Description: as §1, §2, §3, §4

HL60 tumor cells = assay: Orthotopic HL60 AML xenograft model; assay type: in vivo, NOD/SCID mice; settings: 1 mg/kg, day 23 after inoculation
Description: Orthotopically engrafted HL60 tumor-bearing mice were treated with unconjugated C0 (1 mg/Kg) antibody and control ADC (3 mg/Kg) as compared with mice treated with C6-CLT-D202-ADC (3 mg/Kg). The percentage of human HL60 tumor cells in the bone marrow (left panel) and in the peripheral blood (right panel) is shown, the median bar and interquartile error bars are denoted for N=4-6 mice. The table (bottom) indicates the median, minimum, maximum, and interquartile percentage of human HL60 cells in the bone marrow and peripheral blood of treated mice.
Female 6-8 week-old NOD/SCID mice were sub-lethally irradiated with 2.5 Gy, and 5 million HL60 tumors were injected intravenously at one day post-irradiation into the mice. Following 6 days of tumor cell inoculation (˜0.1-1% engraftment in the bone marrow), mice were dosed 3 times, and once per week (q7DX3) with 3 mg/Kg of C6-CLT-D202 ADC or with the same amount of control C0-ADC. Following 23 days of tumor cell inoculation, bone, spleen, and peripheral blood were collected from the treated mice and total hematopoietic cells were isolated. The percentage of human cells in these tissues was determined by flow cytometry using anti-human CD33 and CD45 antibodies. Data were analyzed by Flowjo software, and plotted with Prism software.
Greater than 90% Tumor Growth Inhibition (TGI) was observed after administration with C6-CLT-D202 ADC.

Compound	IC50 (HL-60) [ng/mL]	IC50 (OCI-AML5) [ng/mL]	IC50 (TF-1) [ng/mL]	IC50 (HEL92.1.7) [ng/mL]	IC50 (SHI) [ng/mL]	IC50 (KG1) [ng/mL]	IC50 (HNT-34) [ng/mL]	IC50 (THP-1) [ng/mL]	percentage of human HL60 cells, 25% Percentile (HL60 tumor cells; Blood) [%]	percentage of human HL60 cells, 75% Percentile (HL60 tumor cells; Blood) [%]	percentage of human HL60 cells, Median (HL60 tumor cells; Blood) [%]	percentage of human HL60 cells, Minimum (HL60 tumor cells; Blood) [%]	percentage of human HL60 cells, 25% Percentile (HL60 tumor cells; Bone marrow) [%]	percentage of human HL60 cells, 75% Percentile (HL60 tumor cells; Bone marrow) [%]	percentage of human HL60 cells, Median (HL60 tumor cells; Bone marrow) [%]	percentage of human HL60 cells, Minimum (HL60 tumor cells; Bone marrow) [%]
COc1cc2c(cc1OCCCOc1cc3c(cc1OC)C(=O)N1Cc4ccccc4CC1C=N3)N=CC1Cc3ccccc3CN1C2=O (stereo not drawn) [CLT-D201]	0.002 (≈ 0.00305 nM)	0.00823 (≈ 0.0125 nM)	1.29	0.0404	0.0211 (≈ 0.0321 nM)	2.45	0.014 (≈ 0.0213 nM)	0.0291 (≈ 0.0443 nM)								
COc1ccc(C2=CN3C(=O)c4cc(OC)c(OCCCOc5cc6c(cc5OC)C(=O)N5C=C(c7ccc(N)cc7)C[C@@]5(C)C=N6)cc4N=C[C@]3(C)C2)cc1 [PBD1]	0.0028 (≈ 0.00371 nM)	0.00208 (≈ 0.00276 nM)	0.447	0.00387	0.00547 (≈ 0.00725 nM)	0.66	0.00149 (≈ 0.00198 nM)	0.0126 (≈ 0.0167 nM)								
Palivizumab [C0]									36.025	68.1	56.5	30.4	60.85	85.8	72.95	55.9
